From US7790700B2, “Derivatives of partially desulphated glycosaminoglycans endowed with antiangiogenic activity and devoid of anticoagulating effect” (Sigma-Tau Industrie Farmaceutiche Riunite S.p.A., priority 2000, dated 2010)

Experiments:
[1] = test system: chick embryo chorioallantoic membrane; assay: Angiostatic activity on CAM model (gelatin sponge); assay type: in vivo
Experimental: For the study of angiogenesis the model used was the chick embryo chorioallantoic membrane model (Ribatti e al. Int. J. Dev. Biol., 40, 1189 (1996)).
300 embryonated hens' eggs were incubated at 37° C. in constant humidity conditions. On the 3rd day of incubation, after aspirating 2-3 ml of albumen from the acute pole of the egg so as to detach the CAM from the shell, a window was cut with scissors in the shell. The vessels underlying the CAM were thus exposed. The window was closed with a transparent glass panel and the eggs were put back into the incubator. On the 8th day of incubation, in sterile conditions, the CAMs were treated according to the protocol described below using a technique developed recently (Ribatti et al. J. Vasc. Res. 34, 455 (1997)), which involves the use of sterile gelatin sponges measuring 1 mm^2 in size. […] The sponges were first rested on the surface of the CAM, and then 3 μl of solution of the test substance were pipetted onto the surface of the sponge. The CAMs were examined daily using a Zeiss SR stereomicroscope equipped with a photographic device. The experiments were discontinued on the 12th day of incubation, when an overall assessment of the angiogenic activity of the molecules was carried out, expressed as percentage inhibition in relation to the number of experiments initiated and completed (Table 9). In addition, for compound ST1514, assayed at the concentration of 100 μg/embryo, a macroscopic quantitative evaluation of the angiostatic activity was also carried out according to the technique proposed by Brooks et al. (Science, 264, 569, (1994)), counting the number of vessels surrounding the sponge. The number of vessels was compared with that of the control sponges treated with PBS (vehicle of the test compound) and with FGF-2 (positive control).

CAM = CAM test in the presence of corticosteroids, Lapierre et al. Table III; cited from earlier work
[2] = molecular target: T1, FGFR/FGF2/HSPG ternary complex (Homo sapiens, UniProt P09038); assay: Inhibition of FGF2-mediated intercellular adhesion of CHO-K1 and CHO-745flg cells; assay type: cell-based, Chinese hamsters
T1 construct: FGFR-1 made by transfected HSPG-deficient CHO 745/flg cells; HSPGs on fixed CHO-K1 cells
Source text: To this end an in-vitro model was designed capable of assessing the interference of the various different heparin derivatives with bFGF binding to its own receptor.
These latter cells were stably transfected with cDNA for green fluorescent protein and for this reason could be observed under the fluorescence microscope with a combination of filters for the detection of green emission. In brief, the technique is based on the possibility that the two types of cells may interact (form stable bonds) only if FGF is added to the two cell types. In fact, in this case, the heparan sulphates of the CHO-745flg cells will bind to FGF, which in turn will bind to the CHO-K1 cells, establishing a bridge. The binding that occurs is detectable as a result of the green fluorescence emitted by the CHO-745flg cells.
CHO-K1 cells were seeded at a density of 90,000 cells/cm^2 in 24-well plates. After 24 hours the cells were fixed in 3% glutaraldehyde in PBS for 2 hours at 4° C. and washed with 0.1 M glycine/PBS. On the fixed monolayers CHO 745/flg cells, transfected with FGFR-1, at a density of 50,000 cells/cm^2 in DMEM containing 10 mM EDTA, 30 ng/ml FGF-2 and increasing doses of the test compounds. After 2 hours' incubation at 37° C., the adhering cells were counted under the inverted microscope. The results were expressed as percentage of the number of cells adhering compared to those measured in the absence of the test compounds.

[3] = test system: L6-WT1 cells (rat myoblasts transfected with FGFR-1); assay: Inhibition of DNA synthesis in L6 cells transfected with FGFR-1; assay type: cell-based; conditions: test compound 100 μ/ml
Experimental: L6-WT1 cells (rat myoblasts transfected with FGFR-1) were seeded at a density of 25,000 cells/cm^2 in 48-well plates in DMEM+ 10% FCS. After 24 hours the cells were washed with serum-free medium and incubated for 48 hours with DMEM+ 0.5% FCS. The cells were then incubated for 16 hours with FGF-2 at the concentrations of 15 and 30 ng/ml in the presence or absence of the test compounds (all at 100 μ/ml). At the end of the incubation 3H-thymidine (0.25 μCi/well) was added without changing the medium. After 6 hours, precipitable TCA was measured. Each experimental point is the mean of 3 determinations.

BAEC cells = assay: Test of cell proliferation in BAEC; assay type: cell-based, bovine; conditions: 30 ng/ml FGF-2, 3 days, crystal-violet
Experimental: BAEC cells at the 7th pass were seeded at a density of 2,500 cells/cm^2 in 96-well in EBM medium without bovine brain extract and hEGF. To this medium were added 30 ng/ml of FGF-2 and each of the test compounds at 5 concentrations ranging from 10 ng/ml to 100 μg/ml. After 3 days the cells were fixed and stained with crystal-violet and the optical density was determined by means of an ELISA microplate reader. Each experimental point was done in quadruplicate and the ID50 was calculated.

foetal BAEC GM 7373 = assay: Test of cell proliferation in foetal BAEC GM 7373; assay type: cell-based, bovine; conditions: GM7373, 10 ng/ml FGF-2, cell count
Experimental: GM7373 cells were seeded at a density of 70,000 cells/cm^2 in 96-well plates in MEM+ 10% FCS medium. After 24 hours, the cells were washed with serum-free medium and treated with 10 ng/ml of FGF-2 in medium containing 0.4% FCS. After 8 hours, the test compounds were added to the medium at 5 concentrations ranging from 10 ng/ml to 100 μg/ml. After a further 16 hours, the cells were trypsinised and counted in a Burker chamber. The ID50 was calculated for each compound and the results are the means of 2 experiments in triplicate.

Endothelial Cell = assay: Endothelial cell proliferation (Table 11); assay type: cell-based; conditions: Table 11, endothelial cell proliferation
[4] = background table, structure/antimetastatic activity; cited from earlier work
[5] = Evaluation of heparin toxicity in Balb/c mice; assay type: in vivo; conditions: q2dx5
Experimental: 20 6-week-old female Balb/c mice weighing 20 g (Harlan), divided into groups by casual randomisation, were treated with heparin sodium, as a reference, and with the compound according to the present invention called ST1514. The treatment schedule was of the q2dx5 type, i.e. 5 total administrations at intervals of 2 days, administering 200 μl/mouse of 50 mg/kg/10 ml and 25 mg/kg/10 ml solutions subcutaneously.
48 hours after the last administration of the test substances a blood sample is taken for full blood count and haematological analysis.
Blood sampling: the mice are placed in a hermetically sealed box, into which is insufflated CO2 in an amount sufficient to stun the animal. Blood is then taken from the retro-orbital plexus of each animal (approximately 1 ml of blood/mouse) which is distributed in amounts of 0.4 ml of blood/mouse in Eppendorf test tubes containing 20 μl of Vister heparin (5000 U/ml) for carrying out the full blood count and haematological analysis; and the same amount of blood is distributed in other Eppendorf test tubes containing 50 μl of 3.8% sodium citrate in order to perform prothrombin time determinations. After taking the blood sample, each animal is sacrificed by cervical dislocation.
Full blood count: the appliance (Cell Analyzer 580 A, DELCON) is used according to the standard procedure described in the operating manual. The blood sample (25 μl) is taken by the dilutor and brought up to a volume of 10 ml (dil. 1:400) with isotonic solution (PLTA saline, DELCON). From this solution (called solution A), the dilutor automatically takes a sample of 100 μl and brings it up to a volume of 10 ml (dil. 1:100), thus obtaining solution B. To solution A are added 3 drops of Emosol (DELCON) for lysis of the red blood cells. This solution is used for the WBC reading. Solution B, on the other hand, is used for the RBC and platelet (PLT) readings. Each sample is read in duplicate.
None of the study treatment groups presents significant differences in the numbers of white blood cells as compared to the control group.

[6] = 50 mg/kg and 25 mg/kg subcutaneously

T1 sequence (P09038 143-288, one chain of several): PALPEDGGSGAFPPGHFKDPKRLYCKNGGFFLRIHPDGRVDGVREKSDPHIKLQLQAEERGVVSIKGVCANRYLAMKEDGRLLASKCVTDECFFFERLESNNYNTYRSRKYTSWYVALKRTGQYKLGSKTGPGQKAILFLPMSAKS

FGF-2: basic fibroblast growth factor, positive control with potent angiogenic activity on the CAM
N. vessels at sponge/CAM interface ([1]; 1 μg/embryo, positive control, macroscopic quantitative evaluation (Brooks)): 50 + 4

2-O-desulfated heparin
antiangiogenic activity relative to heparin (in words) (CAM): partly maintained the antiangiogenic activity of heparin

Heparin
Inhibition (ID50) of intercellular adhesion ([2]; 30 ng/ml FGF-2, 2 hours at 37° C., 6 concentrations 1 ng/ml to 100 μg/ml): 100
Cell-Cell Adh. (ID50, ng/mL) ([2]; Table 11, FGF2-mediated cell-cell adhesion): 100 ng/mL
ID50, FGF2-mediated cell-cell adhesion test ([2]; text b166): 0.1 µg/mL
Incorporation of 3H-thymidine (% vs. control) ([3]; FGF-2 15 ng/ml): 50 % vs. control
Incorporation of 3H-thymidine (% vs. control) ([3]; FGF-2 30 ng/ml): 74 % vs. control
Inhibition (ID50) of cell proliferation (BAEC cells): 100 µg/mL
Inhibition (ID50) of cell proliferation (foetal BAEC GM 7373): 2 µg/mL
CAM (% inhibition) ([1]; 100 μg/embryo): 0%
angiostatic activity on CAM (in words) ([1]; remark below Tables 9 and 10): no activity
Cell Prolif. (ID50, ng/mL) (Endothelial Cell): 2 000 ng/mL
% inhibition (antimetastatic activity) [4]: 97%

heparin sodium
platelets compared to the control group ([5]; 25 mg/kg subcutaneously): significant platelet deficiency
haematoma at the inoculum site [5, 6]: marked haematoma at the inoculum site
liver at autopsy [5, 6]: livers with abnormal characteristics
red blood cells compared to the control group ([5]; 50 mg/kg and 25 mg/kg subcutaneously, 48 hours after last administration): reduction in red blood cells
